The source of these data is US20050031715A1, “Natural preservative comprising heated garlic extract and method for preparing thereof” (SEJONG UNIVERSITY, priority 2003, published 2005).

Assay type in all cases: cell-based
In series [1] the test system is Candida utilis ATCC 42416. As to the kind of experiment: Antimicrobial activity (log CFU/Ml) over pH condition. The settings on record: 30° C., 24 hrs. How it is done: Antimicrobial activity of the garlic extract heated at 121° C. for 120 min in Example 1 was measured for Candida utilis ATCC 42416, under various pH conditions. […] For a control, YMPGB medium without comprising any preservative was used. Candida utilis ATCC 42416 used in this Test Example was kindly provided from Dr. Henry P. Fleming at the Food Fermentation Laboratory of the North Carolina State University in USA. […] Then, Candida utilis ATCC 42416 was inoculated with an initial number of 2.1-2.3×10^5 CFU/mL and subsequently incubated at 30° C. for 24 hrs. After completing the incubation, the value of log CFU/Ml was measured by using the viable count method described above.

Series [2] has as its system Candida albicans (Clinical). Description: MIC, viable count method. The settings on record: 48 hrs, heated garlic: 121° C. for 45 min. As for the experimental part: (§1) In order to compare the antibacterial activity and the antifungal activity of the garlic extract of Example 1 prepared by heating at 121° C., according to the heating time, MIC (minimum inhibitory concentration) was measured for the samples of the heated garlic extract. The MIC represents minimum concentration of material to inhibit the growth of certain type of microorganism. It is understood that the lower the MIC of a material, the higher the antimicrobial activity of the material. The inhibition of microbial growth was measured by viable count method based on Spiral Autoplate System of Spiral Biotech Inc. Three separate experiments were carried out for each sample and the highest value was taken as the MIC of the sample.
(§2) Antimicrobial activity was measured for the garlic extract heated at 121° C. for 45 min of Example 1, the fresh garlic extract and the AITC solution which had been prepared in Comparative Examples. Conditions for the viable count method, the medium and initial number of microorganisms inoculated were the same as those described in the above Test Examples. The MIC was measured at 24 hrs or 48 hrs after incubating the bacteria or the yeasts, respectively.
(§3) Staphylococcus aureus B33, Escherichia coli B34, Enterobacter aerogenes B146, Leuconostoc mesenteroides LA10, Pediococcus pentosaceus LA3, Lactobacillus plantarum LA97, Pichia membranifaciens Y20, Saccharomyces cerevisiae ATCC 4126 and Candida utilis ATCC 42416 used in this Test Example were kindly provided from Dr. Henry P. Fleming at the Food Fermentation Laboratory of the North Carolina State University in USA. Candida albicans HY1 was separated from an infant with oral candidiasis. In addition, Candida albicans KCTC 7121 and 7965 were purchased from Korean Collection for Type Cultures (KCTC) and Zygosaccharomyces bisporus KCCM 50168, Zygosaccharomyces rouxii (soya) KCCM 11300, Zygosaccharomyces rouxii KCCM 11303, Zygosaccharomyces rouxii (sake) KCCM 50523 and Zygosaccharomyces rouxii (gracilis) KCCM 50546 were obtained from KCCM (Korean Culture Center of Microorganisms).

Series [3] relates to Candida albicans KCTC 7121. As to the kind of experiment: MIC, viable count method. The settings on record: 48 hrs, heated garlic: 121° C. for 45 min. How it is done:
as §1, §2, §3

For series [4], the system named is Candida albicans KCTC 7965. Description: MIC, viable count method. The settings on record: 48 hrs, heated garlic: 121° C. for 45 min. How it is done: as §1, §2, §3
Series [5] has as its system Candida utilis ATCC 42416. Description: MIC, viable count method. The settings on record: 48 hrs, heated garlic: 121° C. for 45 min. How it is done:
as §1, §2, §3

Series [6] deals with Enterobacter aerogenes B146. As to the kind of experiment: MIC, viable count method. The settings on record: 24 hrs, heated garlic: 121° C. for 45 min. How it is done: as §1, §2, §3
In the next series the test system is Escherichia coli B34. As to the kind of experiment: MIC, viable count method. The settings on record: 24 hrs, heated garlic: 121° C. for 45 min. As for the experimental part:
as §1, §2, §3

Series [7] deals with Lactobacillus plantarum LA97. As to the kind of experiment: MIC, viable count method. The settings on record: 24 hrs, heated garlic: 121° C. for 45 min. As for the experimental part: as §1, §2, §3
Series [8] concerns Leuconostoc mesenteroides LA10. Description: MIC, viable count method. The settings on record: 24 hrs, heated garlic: 121° C. for 45 min. As for the experimental part: as §1, §2, §3
In series [9] the test system is Pediococcus pentosaceus LA3. Description: MIC, viable count method. The settings on record: 24 hrs, heated garlic: 121° C. for 45 min. As for the experimental part: as §1, §2, §3
Series [10] concerns Pichia membranefaciens Y20. As to the kind of experiment: MIC, viable count method. The settings on record: 48 hrs, heated garlic: 121° C. for 45 min. How it is done: as §1, §2, §3
For series [11], the system named is Saccharomyces cerevisiae ATCC 4126. As to the kind of experiment: MIC, viable count method. The settings on record: 48 hrs, heated garlic: 121° C. for 45 min. How it is done:
as §1, §2, §3

In series [12] the test system is Staphylococcus aureus B33. As to the kind of experiment: MIC, viable count method. The settings on record: 24 hrs, heated garlic: 121° C. for 45 min. As for the experimental part:
as §1, §2, §3

For series [13], the system named is Zygosaccharomyces bisporus KCCM 50168. Description: MIC, viable count method. The settings on record: 48 hrs, heated garlic: 121° C. for 45 min. How it is done:
as §1, §2, §3

In series [14] the test system is Zygosaccharomyces rouxii KCCM 11300. As to the kind of experiment: MIC, viable count method. The settings on record: 48 hrs, heated garlic: 121° C. for 45 min. How it is done: as §1, §2, §3
Series [15] concerns Zygosaccharomyces rouxii KCCM 11303. Description: MIC, viable count method. The settings on record: 48 hrs, heated garlic: 121° C. for 45 min. How it is done: as §1, §2, §3
For series [16], the system named is Zygosaccharomyces rouxii KCCM 50523. As to the kind of experiment: MIC, viable count method. The settings on record: 48 hrs, heated garlic: 121° C. for 45 min. As for the experimental part:
as §1, §2, §3

Series [17] has as its system Zygosaccharomyces rouxii KCCM 50546. Description: MIC, viable count method. The settings on record: 48 hrs, heated garlic: 121° C. for 45 min. As for the experimental part: as §1, §2, §3
Series [18] concerns Candida utilis ATCC 42416. Description: Antimicrobial activity (MIC) over storage time at 37° C. The settings on record: stored at 37° C., 30 days, heated extract: 121° C. for 120 min. How it is done:
as §1
Antimicrobial activity of the garlic extract prepared by heating at 121° C. for 120 min in Example 1, the fresh garlic extract and the AITC solution was measured for Candida utilis ATCC 42416, over storage time. Candida utilis ATCC 42416 used in this Test Example was kindly provided from Dr. Henry P. Fleming at the Food Fermentation Laboratory of the North Carolina State University in USA. […] From the first day to the 30th day of the storage, the MIC was measured everyday or every two days using the viable count method described in Test Example 1.

Regarding `C/C=C/C=C/C(=O)[O-].[K+]` [potassium sorbate], the “antimicrobial activity, dependence on pH” value in series [1] (pH 4 to 9, heated garlic extract (121° C., 120 min) 0.5 volume %, potassium sorbate 0.1 weight %) is “significantly affected by pH”. In addition, in series [1] (pH 5, 0.1 weight %), the “antimicrobial activity at pH 5” value was “high”. Further, the “antimicrobial activity at pH 6” value in [1] (pH 6, 0.1 weight %) was “dropped to almost zero”.
Take `C=CCN=C=S` [AITC solution, allyl isothiocyanate]: the MIC in series [2] is on record as 0.0003 ± 0 volume %; in series [3], 0.0003 ± 0.0001 volume %; in series [4], 0.0004 ± 0.0001 volume %; in [5] it was 0.0004 ± 0.0001 volume %; in series [6] it was 0.02 ± 0.002 volume %; against Escherichia coli B34, 0.01 ± 0.0006 volume %. In addition, the MIC in series [7] turned out to be 0.02 ± 0 volume %; in series [8], 0.04 ± 0.0023 volume %; in series [9], 0.02 ± 0.0012 volume %; in [10] it was 0.0001 ± 0 volume %; in series [11] it was 0.0002 ± 0.0001 volume %; in series [12], 0.015 ± 0.0006 volume %. Also, the MIC is on record as 0.0002 ± 0 volume % in [13]; 0.0002 ± 0 volume % in series [14]; 0.0004 ± 0.0001 volume % in series [15]; 0.0005 ± 0.0001 volume % in series [16]; 0.0004 ± 0.0001 volume % in series [17]. Besides, the “stability of antifungal activity over storage time” value in series [18] is recorded as “very unstable”.
